Results as given in patent publication US7927790B2, “Suppression of HIV-1 replication via inhibition of human flap endonuclease-1-mediated HIV-1 central DNA flap processing” (priority 2005, dated 2011).
Entries after “also recorded” stand apart in the source; their conditions may differ.

How the values were obtained:
[1] = molecular target: FEN-1 (Homo sapiens, UniProt P39748); assay: FEN-1 nuclease assay with HIV CDF and regular 5′ flap model substrates; type: biochemical
Protocol: 0.25 or 0.5 pmol of purified recombinant FEN-1 were mixed with 1 pmol of regular 5′ flap substrate with a 3′ flap of single nucleotide or HIV CDF substrate, respectively in the presence of 0, 0.1, 0.2, 0.4, 0.6, 0.8, and 1.0 mM pentamidine isethionate salt. The reaction was carried out at 37° C. for 30 minutes. Substrates and products were analyzed with DNA sequencing PAGE and visualized with radio-autograph (upper panel). The amount of cleavage products and non-cleaved substrates were quantified with ImagineQuant and were shown in the bottom panel.
One pmol of HIV CDF substrate were mixed with 0, 0.01, 0.1, 1, and 3 pmol of purified recombinant FEN-1 in the absence or presence of 0.4 mM pentamidine isethionate salt. The reaction was carried out at 37° C. for 30 minutes. Substrates and products were analyzed with DNA sequencing PAGE and visualized with radio-autograph (upper panel). The amount of cleavage product and non-cleaved substrate were quantified with ImagineQuant and were shown in the bottom panel.
FIG. 12 is a graph line and chart showing kinetic analysis of FEN-1 cleavage of HIV CDF substrates in the absence and presence of pentamidine. 1 pmol of FEN-1 was incubated with 0, 0.125, 0.25, 0.375, 0.5, 1, and 2 pmol of HIV CDF substrates. The reaction were carried out at 37° C. for 10 min. The amount of cleavage product and non-cleaved substrate were quantified with ImagineQuant. The Michaelis-Menten kinetic parameters Km and Kcat (Bottom panel) were calculated with double-reciprocal plots of 1/v versus 1/[s] (Upper panel).
Nuclease assays. DNA model substrates were prepared as previously described (Zheng 2005). FEN-1 nuclease and/or D181A mutant was incubated with 1 pmol of indicated DNA substrates at 30° C. for 15 minutes. DNA substrates and products were separated in DNA sequencing PAGE and visualized with autoradiography.
Finally, the third criteria is in vitro inhibition of HIV-CDF processing. The inhibition of FEN-1 cleavage of HIV-CDF and regular 5′ flap structures by molecules selected after criteria 2 are examined in this test. Only the molecules that inhibit FEN-1 cleavage of HIV-CDF but not the regular 5′ flap structures are qualified for in vivo studies. The inhibition efficacy of HIV replication in H9 and CEM T cell lines by small molecules is determined with the HIV reverse transcriptase inhibitor AZT used as an inhibition control.

[2] = test system: HIV-1 vector HXB2-Hyg; assay: HIV-1 infection colony assay (hygromycin-resistant colonies) in HeLa CD4+ cells; type: cell-based; conditions: compared to control HeLa CD4+ cells
Protocol: The cells are infected with a modified HIV-1 virus. Upon integration, the infected cells become hygromycin-resistant due to the expression of the drug-resistant gene from the proviral DNA. The integration efficiency is then determined by counting the colonies selected on Hygromycin B. The integration is confirmed by LTR-Tag assay.
A modified HIV-1 virus vector derived from strain HXB2 (HXB2-Hyg) with a newly created Bpm I site near the end of the U5 region in its 5′ LTR is prepared. This virus genome also contains a hygromycin-resistant gene for selecting virus-infected cells. This VSV-G pseudotyped virus is used to infect LaD cells along with LaF and LaP cells with m.o.i. of 1.0. The infected cells are cultured in a medium containing 200 μg/ml of Hygromycin B for 2 weeks. The virus-infected cells with the stable integrated provirus are hygromycin-resistant and grow into colonies. The colonies are stained with 0.2% crystal violet in 10% phosphate-buffered formalin (pH 7.0) and counted.
An LTR-Tag analysis method is used to detect HIV integration. […] For this reason, there are many fewer ^32P-labeled LTR-Tags prepared from the D181A overexpressing LaD cells in comparison to the radioactivity-labeled LTR-Tags prepared from the LaP cells. […]
HIV-1 infection colony assay. […] Hygromycin-resistant colonies were stained with 0.2% crystal violet in 70% ethanol, and the number of colonies was counted.

[3] = test system: HIV-1 cDNA integration; assay: HIV-1 integration assay, Southern blot hybridization of host genomic DNA; type: cell-based; conditions: expression in HeLa cells
Protocol: To further validate that inhibition of FEN-1 nuclease activity reduced HIV-1 cDNA integration, genomic DNA was isolated and the integration of viral cDNA into the host genome was detected by Southern blot hybridization. […] Both of the experiments indicate that the integration of HIV may be impaired under a FEN-1 deficient background.
HIV-1 integration assay. Genomic DNA was isolated from HIV-1 infected cells according to a previous protocol (Chen 1998). 20 μg of DNA was digested with EcoRV and BamHI and resolved on a native agarose gel. A 0.8 kb of HIV-1 specific DNA fragment, released by digestion of HIV cDNA with BamHI and BgIII, was used as a probe in Southern blot hybridization.

[4] = test system: HIV-1 strain NL4-3 and III B; assay: HIV-1 replication in CEM T-cells over-expressing FEN-1 or D181A, secreted p24; type: cell-based
Protocol: In order to test the effects of FEN-1 function on HIV replication in its natural host cells, human T-cells, the CEM cells with the same construct shown in FIG. 4A were transfected under selection of G418. CEM cells (C), CEM cells expressing the c-myc-tagged hFEN-1 (F), or D181A mutant (A) were seeded at 0.5×10^4 cells per well in a 12-well plate. Duplicate plates were prepared for each cell line. The cells were challenged with two HIV-1 strains: NL4-3 and III B. Virus challenge proceeded at both 50 TCID50 and 5 TCID50. The cell culture supernatants were collected and the HIV-1 p24 was measured weekly for four weeks post-infection.
HIV-1 replication in CEM cells. CEM cells, or CEM cells infected with the hFEN-1 or D181A retroviral vector, were seeded at 0.5×10^4 cells per well of a 12-well plate. Duplicate plates were prepared for each cell line. The cells were challenged with HIV-1 strain NL4-3 and III B. Viral challenge was conducted at both 50 TCID50. Cell culture supernatants were collected and the HIV-1 p24 was measured weekly for four weeks post-infection. Syncytium formation due to the HIV-1 infection was monitored, and cells were photographed under a microscope weekly (FIGS. 6-7).

[5] = test system: HIV IIIB virus; assay: Antiviral challenge assay, HIV IIIB replication in H9 or CEM cells, p24; type: cell-based, HIV-1; conditions: for inhibition of HIV replication (p24) / suppression of HIV replication (p24): HIV IIIB, 7 days; for inhibition of HIV replication (p24): 10 μM AZT; for suppression of HIV replication (p24): 15 μM pentamidine
Protocol: H9 cells or CEM cells were challenged with HIV IIIB virus in the absence (PC) or presence of 15 μM pentamidine (PTD) or 10 μM AZT. Cells were grown for 7 days and the concentration of p24 were determined and the inhibition percentage were calculated. FIG. 13B: H9 cells or CEM cells were challenged with HIV IIIB virus in the absence or presence of varying concentration of pentamidine (PTD) or AZT. Cells were grown for 7 days and the concentration of p24 were determined.
The next experiment examined whether pentamidine could inhibit HIV replication in vivo. The H9 cells and CEM cells were challenged with HIV IIIB virus in the absence or presence of 15 μM pentamidine or 10 μM AZT, a HIV reverse transcriptase inhibitor.
Antiviral challenge assays using infectious laboratory and other HIV-1 strains: Appropriate cells, screened for viability and growth kinetics, are challenged with HIV-1 strain IIIB, NL4-3, JRFL or primary isolates. This is a modification of a standard method described by Ho (Ho 1991) for virus neutralization. The resultant inoculum is titrated by ID50 in uninfected CEM, H9 or PBMC cultures. 0.01 MOI HIV is inoculated onto 10^6 candidate cells for six hours at 37° C., and then washed three times with PBS. For screening assays, each cell culture supernatant is examined on day seven post infection and examined for reverse transcriptase activity or p24 concentration. For confirmation assays, cultures are followed for day 7, 14, 21 and 28 observations. Cells are fed twice weekly by removing one-half of the media. Viral inhibition is defined >50% reduction in RT activity or p24 compared with control culture, which were mock-treated.

[6] = in the presence of 400 μM of pentamidine

Chain of FEN-1 (P39748 whole entry): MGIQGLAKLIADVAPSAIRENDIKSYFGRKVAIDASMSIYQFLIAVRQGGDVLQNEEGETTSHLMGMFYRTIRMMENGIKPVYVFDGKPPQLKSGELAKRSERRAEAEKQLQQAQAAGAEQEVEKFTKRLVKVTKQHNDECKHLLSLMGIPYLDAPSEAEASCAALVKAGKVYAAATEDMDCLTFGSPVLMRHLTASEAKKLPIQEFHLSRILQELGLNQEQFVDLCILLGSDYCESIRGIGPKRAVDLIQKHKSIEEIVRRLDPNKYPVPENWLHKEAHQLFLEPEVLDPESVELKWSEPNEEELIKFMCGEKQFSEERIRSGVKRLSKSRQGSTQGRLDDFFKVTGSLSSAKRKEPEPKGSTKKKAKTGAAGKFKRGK

## D181A: dominant negative point mutant of human FEN-1, binds flap DNA but deficient in catalysis and nuclear localization
[1]; HIV CDF substrate, mutant 8-10 folds higher than wild type protein concentration
  inhibition of wild type FEN-1 flap endonuclease activity in vitro: almost completely inhibit
[1]; d-flap substrates, model for host cell RNA primer removal
  inhibition of FEN-1 activity with d-flap substrates: does not inhibit
[2]
  decrease of HIV-1 integration, hygromycin-resistant CFUs: more than 95 % CFUs
[3]
  HIV-1 cDNA integration into host genome: significantly decreased
[4]; stable T-cell lines over-expressing the mutant
  HIV-1 replication suppressed, secreted HIV p24 protein concentrations: more than 99.9%
[4]; transduced CEM cells, HIVIIIB and HIVNL4-3, weekly for four weeks
  HIV inhibition, culture supernatant p24: strong HIV inhibition

## Cc1cn([C@H]2C[C@H](N=[N+]=[N-])[C@@H](CO)O2)c(=O)[nH]c1=O [AZT]
[5]; CEM cells
  inhibition of HIV replication (p24): 98.6%
[5]; H9 cells
  inhibition of HIV replication (p24): 100%

## N=C(N)c1ccc(OCCCCCOc2ccc(C(=N)N)cc2)cc1 [pentamidine]
[1]
  effect on FEN-1 cleavage of regular 5′ flap structures resembling RNA-DNA primers: little effect
[1]; Michaelis-Menten, double-reciprocal plots, 37° C., 10 min
  effect on kcat and Km of FEN-1 cleavage of HIV CDF substrates: decrease
[1]; concentrations higher than 1 mM
  cleavage of both HIV CDF and regular 5′ flap substrates: completely inhibited
[1]; [6]
  FEN-1's activity cleaving regular 5′ flap substrates retained: greater than 80%
  FEN-1 cleavage of HIV CDF structures suppressed: 90%
[5]; CEM cells
  suppression of HIV replication (p24): 69.3%
[5]; H9 cells
  suppression of HIV replication (p24): 98.8%
[5]; T-cell lines
  inhibitory effect on HIV replication compared with AZT: equal to or more effective than AZT; also recorded: equivalent to AZT
[5]; another T-cell line
  inhibitory effect on HIV-1 replication relative to AZT: about 70 % that of AZT
